Experimental data published in patent US8450372B2, “Formulations of suberoylanilide hydroxamic acid and methods for producing same” (Merck Sharp & Dohme Corp., priority 2005, dated 2013).
Like-named read-outs stand apart in the source and are kept apart here. Marks after values point to notes of the source that are not given here.

How the values were obtained:
[1] = Dissolution rate of about 100 mg SAHA API before encapsulation (USP Dissolution Apparatus II, 900 mL 2.0% Tween, 37±0.5° C., 100 rpm, HPLC); format: physicochemical; settings: for Average SAHA % Dissolved at Time, minutes 0: 0 minutes; for Average SAHA % Dissolved at Time, minutes 10: 10 minutes; for Average SAHA % Dissolved at Time, minutes 15: 15 minutes; for Average SAHA % Dissolved at Time, minutes 20: 20 minutes; for Average SAHA % Dissolved at Time, minutes 30: 30 minutes; for Average SAHA % Dissolved at Time, minutes 45: 45 minutes; for Average SAHA % Dissolved at Time, minutes 60: 60 minutes
Procedure: Dissolution rates or profiles in vitro of “about 100 mg of the active ingredient of the pharmaceutical composition” is measured according to the steps and conditions in Example 15. In one embodiment, it is measured by using a USP Dissolution Apparatus II with a helical sinker (Quality Lab Accessories L.L.C., Manville, N.J.) in 900 mL of 2.0% Tween (TCI America, Portland, Oreg.) at a temperature of 37±0.5° C., and paddles rotated at 100 rpm.
The dissolution rate of 100 mg of SAHA API before encapsulation was evaluated using a USP Dissolution Apparatus II (VK 7000, Varian Inc., Cary, N.C.). About 100 mg of SAHA was delivered to vessels containing 900 mL of 2.0% Tween (TCI America, Portland, Oreg.) at a temperature of 37±0.5° C. The paddles were rotated at 100 rpm and samples were pulled at specified time intervals via an autosampler (VK 8000, Varian Inc., Cary, N.C.) equipped with 35 μm full flow filters (Varian Inc., Cary, N.C.).
Subsequently, samples were assayed for SAHA by High Performance Liquid Chromatography (Agilent 1100 series, Agilent Technologies Inc., Wilmington, Del.). The chromatographic analysis was conducted using a Phenomenex Luna C8 (2) (100×4.6 mm) 5 μm particle size column, a mobile phase of 1:1 methanol/0.1% trifluroacetic acid (Reagent Grade, Fisher), and a detection wavelength of 242 nm.

[2] = Solubility of SAHA raw material (physical and chemical properties of raw materials); format: physicochemical; settings: water
Source text: Table 10 summarizes the physical properties of the raw materials in the capsule.

[3] = Phase I study: single- and multiple-dose serum pharmacokinetics of oral vorinostat 400 mg, fasted and after high-fat meal; format: in vivo, human; settings: for fe (fraction of dose excreted unchanged in urine): arithmetic mean; for Tmax: median; for AUC(0-t): read-out: AUC0-24 hr
Procedure: (§1) This Phase I study conducted in advanced stage cancer patients assessed safety and tolerability of oral vorinostat administered 400 mg q.d., single- and multiple-dose serum pharmacokinetics (PK) of vorinostat, and the effect of a standard high-fat meal on single-dose vorinostat PK. Patients received a single-dose of 400 mg vorinostat on Day 1 (fasted) and Day 5 (after a standard high-fat meal) with 48 hours of postdose PK sampling on both days. Patients then received 400 mg vorinostat once a day on Days 7 through 28 (22 days of dosing). On Day 28, vorinostat was administered after a standard high-fat meal with PK sampling for 24 hrs postdose. Of 23 patients enrolled, 23 were evaluable for Day 1 PK, 20 for Day 5 PK, and 14 for Day 28 PK. The apparent t1/2 of vorinostat was short.
Table 22: PK Parameters of Vorinostat Following Single and Multiple Doses of Vorinostat 400 mg Daily

[4] = Phase I study: safety and tolerability of oral vorinostat 400 mg q.d.; format: in vivo, human; settings: short-term administration, patients with advanced cancer
Procedure: as §1

[5] = 400 mg single oral dose, high-fat meal vs fasted
[6] = single dose fed/single dose fasted, 400 mg

With O=C(CCCCCCC(=O)Nc1ccccc1)NO [1376-C-RO-02, suberoylanilide hydroxamic acid] the “Average SAHA % Dissolved at Time, minutes 0” value [1] was 0.0%, the “Average SAHA % Dissolved at Time, minutes 10” value [1] was 31.1% and the “Average SAHA % Dissolved at Time, minutes 15” value [1] was 39.7%. The “Average SAHA % Dissolved at Time, minutes 20” value [1] was 47.1%, the “Average SAHA % Dissolved at Time, minutes 30” value [1] was 58.3% and the “Average SAHA % Dissolved at Time, minutes 45” value [1] was 70.1%. The “Average SAHA % Dissolved at Time, minutes 60” value [1] was 78.3%.
With O=C(CCCCCCC(=O)Nc1ccccc1)NO [1136-1136-00-001, suberoylanilide hydroxamic acid] the “Average SAHA % Dissolved at Time, minutes 0” value [1] was 0.0%, the “Average SAHA % Dissolved at Time, minutes 10” value [1] was 38.2% and the “Average SAHA % Dissolved at Time, minutes 15” value [1] was 48.9%. For the same molecule, the “Average SAHA % Dissolved at Time, minutes 20” value [1] was 57.3%, the “Average SAHA % Dissolved at Time, minutes 30” value [1] was 69.3% and the “Average SAHA % Dissolved at Time, minutes 45” value [1] was 80.6%. For the same molecule, the “Average SAHA % Dissolved at Time, minutes 60” value [1] was 87.7%.
In the case of O=C(CCCCCCC(=O)Nc1ccccc1)NO [vorinostat, N-hydroxy-N′-phenyloctanediamide], the solubility [2] is reported as less than 100 µg/mL, the “Accumulation ratio: AUC0-24 hr multiple dose fed/AUC0-24 hr single dose fed (GMR)” value ([3]; 400 mg daily) is reported as 1.21 and the “Linearity ratio: AUC0-24 hr multiple dose fed/AUC0-∞ single dose fed (GMR)” value ([3]; 400 mg daily) is reported as 1.23. The “fe (fraction of dose excreted unchanged in urine)” value ([3]; 400 mg oral, multiple doses (once daily for 22 days), fed, n = 12) was 0.0037, the t1/2 ([3]; 400 mg oral, multiple doses (once daily for 22 days), fed, harmonic mean) was 1.34 h and the Cmax ([3]; 400 mg oral, multiple doses (once daily for 22 days), fed, serum, geometric mean) was 1130 nM. For the same molecule, the “fe (fraction of dose excreted unchanged in urine)” value ([3]; 400 mg oral, single dose, fasted, n = 22) was 0.0021, the Tmax ([3]; 400 mg oral, single dose, fasted) was 1.50 h and the “AUC0-∞” value ([3]; 400 mg oral, single dose, fed (high-fat meal), serum, geometric mean) was 5.33 µM·h. For the same molecule, the “fe (fraction of dose excreted unchanged in urine)” value ([3]; 400 mg oral, single dose, fed, n = 21) was 0.0030, the AUC0-24 hr ([3]; 400 mg oral, single dose, fed, serum, geometric mean) was 5.33 µM·h and the “extent of absorption, effect of high-fat meal” value [3, 5] was “small increase”. For the same molecule, the “rate of absorption, effect of high-fat meal” value [3, 5] was “modest decrease”, the “apparent t1/2” value ([3]; advanced cancer patients, 400 mg oral, serum) was “short” and the “Tmax, effect of high-fat meal” value ([3]; fed state, 400 mg oral) was “delayed”. For the same molecule, the “lag time before detectable levels in serum” value ([3]; fed state, most subjects, 400 mg oral) was “at least 15 minutes”, the Tmax ([3]; human, serum, po, 400 mg, 400 mg oral, multiple doses (once daily for 22 days), fed, read-out: Tmax) was 4.21 h and the AUC(0-t) ([3]; human, serum, po, 400 mg, 400 mg oral, multiple doses (once daily for 22 days), fed, serum, geometric mean) was 6.46 µM·h. For the same molecule, the Cmax ([3]; human, serum, po, 400 mg, 400 mg oral, single dose, fasted, geometric mean) was 1120 nM, the half-life ([3]; human, serum, po, 400 mg, 400 mg oral, single dose, fasted, harmonic mean) was 1.74 h and the AUC(0-t) ([3]; human, serum, po, 400 mg, 400 mg oral, single dose, fasted, serum, geometric mean) was 3.82 µM·h. For the same molecule, the Cmax ([3]; human, serum, po, 400 mg, 400 mg oral, single dose, fed, geometric mean) was 1020 nM, the half-life ([3]; human, serum, po, 400 mg, 400 mg oral, single dose, fed, harmonic mean) was 1.44 h and the Tmax ([3]; human, serum, po, 400 mg, 400 mg oral, single dose, fed, read-out: Tmax) was 4 h. For the same molecule, the AUC(0-inf) ([3]; human, 400 mg oral, single dose, fasted, serum, geometric mean) was 3.87 µM·h, the Trough concentrations ([3]; multiple-dose administration, 400 mg once a day, serum) was “generally below the limit of quantification” and the “AUC0-∞ GMR (geometric mean ratio)” value [3, 6] was 1.38^§. For the same molecule, the “Cmax GMR (geometric mean ratio)” value [3, 6] was 0.91^§ and the tolerability [4] was “generally well tolerated”.
For O=C(CCCCCCC(=O)Nc1ccccc1)NO [1007D, suberoylanilide hydroxamic acid], the “Average SAHA % Dissolved at Time, minutes 0” value [1] was 0.0%, the “Average SAHA % Dissolved at Time, minutes 10” value [1] was 37.8% and the “Average SAHA % Dissolved at Time, minutes 15” value [1] was 46.1%. For the same molecule, the “Average SAHA % Dissolved at Time, minutes 20” value [1] was 52.1%, the “Average SAHA % Dissolved at Time, minutes 30” value [1] was 61.9% and the “Average SAHA % Dissolved at Time, minutes 45” value [1] was 71.8%. For the same molecule, the “Average SAHA % Dissolved at Time, minutes 60” value [1] was 79.3%.
For O=C(CCCCCCC(=O)Nc1ccccc1)NO [1008D, suberoylanilide hydroxamic acid], the “Average SAHA % Dissolved at Time, minutes 0” value [1] was 0.0%, the “Average SAHA % Dissolved at Time, minutes 10” value [1] was 26.8% and the “Average SAHA % Dissolved at Time, minutes 15” value [1] was 34.8%. The “Average SAHA % Dissolved at Time, minutes 20” value [1] was 41.5%, the “Average SAHA % Dissolved at Time, minutes 30” value [1] was 51.3% and the “Average SAHA % Dissolved at Time, minutes 45” value [1] was 61.8%. For the same molecule, the “Average SAHA % Dissolved at Time, minutes 60” value [1] was 69.8%.
